For data set [1], the system named is greenhouse red spidermite (Tetranychus urticae). The data set can be described thus: Tetranychus test; OP resistant (TETRUR spray treatment), Example 7, comparison with prior art. The format is in vivo. Conditions: 6 d. On the procedure: (§1) Solvents: 78.0 parts by weight of acetone • • 1.5 parts by weight of dimethylformamide Emulsifier: 0.5 part by weight of alkylaryl polyglycol ether An appropriate preparation of active compound is prepared by mixing 1 part by weight of active compound with the stated amounts of solvent and emulsifier and diluting the concentrate with emulsifier-containing water to the desired concentration. Leaf discs of bean (Phaseolus vulgaris) infested by all stages of the greenhouse red spidermite (Tetranychus urticae) are sprayed with a preparation of active compound at the desired concentration. After the desired time, the effect in % is determined. Here, 100% means that all of the mites have been killed; 0% means that no mites have been killed.

Data set [2] relates to Boophilus microplus. The data set can be described thus: Boophilus microplus test (BOOPMI injection). The format is in vivo. Conditions: injection into the abdomen, 20 μg/animal, after 7 days. How it is done: Solvent: Dimethyl Sulphoxide An appropriate preparation of active compound is prepared by mixing 10 mg of active compound with 0.5 ml of solvent and diluting the concentrate with solvent to the desired concentration. The solution of active compound is injected into the abdomen (Boophilus microplus) and the animals are transferred into dishes and kept in a controlled atmosphere. The activity is assessed on the basis of deposition of fertile eggs. After 7 days, the effect in % is determined. Here, 100% means that none of the ticks has laid fertile eggs.

In data set [3] the test system is greenhouse red spidermite (Tetranychus urticae). The data set can be described thus: Tetranychus test; OP resistant (TETRUR spray treatment), Example 5. As to conditions: foliar, 144 h, spray on bean leaf discs, after 6 days, read-out: effect (100% means that all of the mites have been killed); for pest or weed control at 100 g/ha: application rate 100 g/ha; for pest or weed control at 500 g/ha: application rate 500 g/ha. Type of data set: in vivo. How it is done:
as §1, with “6 days,” for “the desired time,”

Data set [4] can be described thus: log P by HPLC/LC-MS on reversed-phase C18, formic acid method [b]. Type of data set: physicochemical. As to conditions: reversed-phase C18 HPLC column; pH 2.7, 0.1% aqueous formic acid and acetonitrile; read-out: logP (HCOOH). On the procedure:
(§2) The log P values reported in the table above and in the preparation examples were determined in accordance with EEC Directive 79/831 Annex V.A8 by HPLC (High Performance Liquid Chromatography) on reversed-phase columns (C 18), with the following methods: ^[b] The determination is made by LC-MS in the acid range at pH 2.7 with 0.1% aqueous formic acid and acetonitrile (containing 0.1% formic acid) as eluents; linear gradient from 10% acetonitrile to 95% acetonitrile. Calibration took place with unbranched alkan-2-ones (having 3 to 16 carbon atoms) of known log P values (log P values determined from the retention times by linear interpolation between two successive alkanones).

Data set [5] in a line: log P by HPLC on reversed-phase C18, phosphoric acid method [a]. Type of data set: physicochemical. As to conditions: reversed-phase C18 HPLC column; pH 2.3, 0.1% aqueous phosphoric acid and acetonitrile; read-out: logP (H3PO4). On the procedure:
as §2, with “^[a]” for “^[b]”, “made” for “made by LC-MS”, “2.3” for “2.7”, “phosphoric” for “formic”, “acetonitrile” for “acetonitrile (containing 0.1% formic acid)”

The subject of data set [6] is Boophilus microplus. Put plainly: Boophilus microplus (dip). Type of data set: in vivo. Conditions: application rate 100 ppm, after 7 days. How it is done:
Solvent: Dimethyl Sulphoxide A quantity of 10 mg of active compound is dissolved in 0.5 ml of dimethyl sulphoxide. To prepare a suitable formulation, the active compound solution is diluted with water to the particular desired concentration. This active compound preparation is pipetted into tubes. A quantity of 8-10 ticks is transferred into a further tube with holes. The tube is immersed in the active compound preparation, with all of the ticks being fully wetted. After the liquid has run off, the ticks are transferred to filter discs in plastic dishes and are kept in a conditioned room. The effect is monitored after 7 days on the basis of deposition of fertile eggs. Eggs whose fertility is not externally visible are stored in glass tubes until the larvae hatch, in a controlled-climate box. An activity of 100% means that none of the ticks has laid fertile eggs.

Data set [7] concerns green peach aphid (Myzus persicae). The data set can be described thus: Myzus test (MYZUPE spray treatment). As to conditions: spray on Chinese cabbage leaf discs, application rate 500 g/ha, after 6 days. Type of data set: in vivo. On the procedure:
as §1, with “Solvent: 78” for “Solvents: 78.0”, “Chinese cabbage (Brassica pekinensis)” for “bean (Phaseolus vulgaris)”, “green peach aphid (Myzus persicae)” for “greenhouse red spidermite (Tetranychus urticae)”, “6 days,” for “the desired time,”, “aphids” for “mites”

Data set [8] relates to Meloidogyne incognita. The data set can be described thus: Meloidogyne incognita test (MELGIN). Type of data set: in vivo. As to conditions: application rate 20 ppm, lettuce in sand, after 14 days. On the procedure: Solvents: 80.0 parts by weight of acetone An appropriate preparation of active compound is prepared by mixing 1 part by weight of active compound with the stated amounts of solvent and emulsifier and diluting the concentrate with water to the desired concentration. Pots are filled with sand, solution of active compound, meloidogyne incognita egg/larvae suspension, and lettuce seeds. The lettuce seeds germinate and the plants develop. On the roots, the galls develop. After 14 days, the nematicidal effect is determined from the gall formation, in %. Here, 100% means that no galls were found; 0% means that the number of galls on the treated plants corresponds to that for the untreated control.

Structures are written as SMILES.

As for `Cc1cc(C)c(-n2cnc(C(F)(F)F)n2)cc1SCC(F)(F)F` [VI -297, reference compound], the “% effect after application” value is 0% in data set [1] (4 g/ha) and 70% in data set [1] (20 g/ha).

On to `Cc1cc(C)c(-n2cnc(C(F)(F)F)n2)cc1SCC(F)F` [I-A-1, 3-(trifluoromethyl)-1-{2,4-dimethyl-5-[(2,2-difluoroethyl)sulphanyl]phenyl}-1H-1,2,4-triazole], for which, in data set [2], the “activity (100% means that none of the ticks has laid fertile eggs)” value was determined as 100%. The pest or weed control at 100 g/ha in data set [3] came to 100%. Moreover, the chromatographic logP in data set [4] came to 3.74.

Take `Cc1cc(C)c([S+]([O-])CC(F)(F)C(F)(F)F)cc1-n1cnc(C(F)(F)F)n1` (centres unmarked) [I-A-10]: in data set [3], the pest or weed control at 500 g/ha came out at 100%. For the same compound, the chromatographic logP in data set [5] was determined as 3.29.

With `Cc1cc(C)c(-n2cnc(C(F)(F)F)n2)cc1SCC(F)(F)C(F)F` [I-A-3], the “activity (100% means that none of the ticks has laid fertile eggs)” value in data set [6] came to 90%; in data set [2], 100%. Further, the pest or weed control at 500 g/ha in data set [3] came to 100%. Besides, the chromatographic logP in data set [5] is 3.98.

On to `Cc1cc(C)c([S+]([O-])CC(F)(F)C(F)F)cc1-n1cnc(C(F)(F)F)n1` (centres unmarked) [I-A-5], for which the “activity (100% means that all of the aphids have been killed)” value in data set [7] was determined as 90%. For the same compound, in data set [2], the “activity (100% means that none of the ticks has laid fertile eggs)” value stood at 100%. Also, the pest or weed control at 500 g/ha in data set [3] amounted to 100%. Also, the chromatographic logP in data set [5] was 2.88.

For `Cc1cc(C)c(-n2cnc(C(F)(F)F)n2)cc1SCC(F)(F)C(F)(F)F` [I-A-4], the “activity (100% means that none of the ticks has laid fertile eggs)” value in data set [6] was found to be 90%. Moreover, the “activity (100% means that none of the ticks has laid fertile eggs)” value in data set [2] is recorded as 100%. For the same compound, in data set [3], the pest or weed control at 100 g/ha amounted to 100% and the pest or weed control at 500 g/ha was found to be 100%. The chromatographic logP in data set [5] was 4.49.

As for `Cc1cc(C)c(-n2cnc(C(F)(F)F)n2)cc1SCCC(F)(F)F` [I-A-20], the “activity (100% means that all of the aphids have been killed)” value in data set [7] turned out to be 100%. In data set [3], the pest or weed control at 100 g/ha came out at 100%. The chromatographic logP in data set [4] is 4.32.

As for `Cc1cc(C)c([S+]([O-])CC(F)F)cc1-n1cnc(C(F)(F)F)n1` (centres unmarked) [I-A-2, 3-(trifluoromethyl)-1-{2,4-dimethyl-5-[(2,2-difluoroethyl)sulphinyl]phenyl}-1H-1,2,4-triazole], the “activity (100% means that none of the ticks has laid fertile eggs)” value in data set [2] turned out to be 100%. For the same compound, the pest or weed control at 100 g/ha in data set [3] was 100%. Also, the chromatographic logP in data set [4] was found to be 2.41.

In the case of `Cc1cc(Cl)c(-n2cnc(C(F)(F)F)n2)cc1[S+]([O-])CC#N` (centres unmarked) [I-A-11], in data set [8], the “nematicidal effect from gall formation (100% means that no galls were found)” value was determined as 90%. For the same compound, in data set [3], the pest or weed control at 500 g/ha is 100%. The chromatographic logP in data set [4] stood at 2.17.

These data come from US8722717B2, “3-triazolylphenyl-substituted sulphide derivatives as acaricides and insecticides” (Bayer CropScience AG, priority 2009, dated 2014).
